Test results as given in US8143484B2, “Method for regulating agrobacterium-mediated transformation” (priority 2008, dated 2012).

Legend:
sorghum = conditions: acetosyringone alone used to induce vir gene expression; cited from earlier work
lillies = conditions: addition of acetosyringone; cited from earlier work
[1] = test system: P898012 sorghum immature embryos; assay: Phenolic compound production by infected, cultured sorghum immature embryos (visual exudates); format: cell-based; conditions: infected and cultured immature zygotic embryos of sorghum (FIG. 3)
Experimental: Transformation was carried out in 6 distinctive but sequential phases. Freshly isolated embryos of P898012 or GS3 were mixed together or separated into 1.5 mL of medium 700 either lacking or containing […] acetosyringone. The concentration of A. tumefaciens harbouring the vector PHP15303 (FIG. 5) in the suspension was adjusted to 0.857×10^9 cfu/mL [Optical Density (OD) approximately 0.6 at 550 nm]. The infection suspension was vortexed gently for 15 seconds, poured into 1 cm-diameter microplates and vacuumed for 5 minutes with gentle rocking for mixing. • 2. The Agrobacterium suspension was then aspirated and the embryos plated on co-cultivation medium 710B either lacking or containing […] acetosyringone for 3 days (co-cultivation) and cultured in the dark at 25° C. • 3. […]
Cultured immature zygotic embryos of the sorghum genotype P898012 produce phenolic compounds which can be visually identified as black/dark brown exudates within the proximity of the embryos on tissue culture medium (FIG. 2 (I) and FIG. 1 (J)). When these immature embryos are infected with A. tumefaciens, higher quantities of these phenolic compounds are produced, especially when the medium on which the embryos are cultured is not supplemented with the synthetic acetosyringone (contrast FIGS. 2 (A & B) vs. FIGS. 2 (D & E)).

wheat = conditions: 200 μM instead of the usual 100 μM; cited from earlier work

Question: Which Agrobacterium transformation efficiency (sorghum) does the source give for `COc1cc(C(C)=O)cc(OC)c1O` [acetosyringone, 4-acetyl-2,6-dimethoxyphenol] here?
Answer: very low

Question: What about the “effect on transformation efficiency” value (lillies) of the same compound?
Answer: does not have any effect on transformation efficiency

Question: And the “effect on production of phenolic compounds” value [1]?
Answer: depresses the production of phenolic compounds

Question: What about the “T-DNA transfer and transformation efficiency” value (wheat) of the same compound?
Answer: higher levels of T-DNA transfer and transformation efficiency
